{
  "source": "patent US20200383985A1",
  "about": "“Inhibitors of Protease Activated Receptor-2” (Endosome Therapeutics, Inc., priority 2017, published 2020)",
  "key": {"mouse DRG neurons": {"test_system": "mouse DRG neurons", "experiment": "Patch clamp rheobase of DRG neurons: protease-induced hyperexcitability of nociceptors", "format": "cell-based", "details": "for basal excitability of DRG neurons / initial hyperexcitability (0 min) caused by trypsin, NE or CS / persistent effects (30 min) of NE or CS on rheobase / persistent effects (30 min) of trypsin on rheobase: Dy4 30 μM, PS2 15 μM; for rheobase after protease: trypsin 50 nM 10 min, NE 390 nM 30 min, CS 500 nM 60 min, thrombin 50 nM 20 min, washed"}, "[1]": {"test_system": "cytosolic and nuclear ERK", "experiment": "FRET assays of cytosolic and nuclear ERK in HEK293 cells", "format": "cell-based", "details": "for trypsin activation of cytosolic and nuclear ERK: I-343 10 μM, SCH530348 100 nM, PS2 30 μM", "experimental": "Trypsin-induced ERK signaling mediated by endosomal PAR2 signaling was investigated in HEK293 cells expressing Flag-PAR2-HA11 and FRET biosensors for cytosolic and nuclear ERK (CytoEKAR, NucEKAR), plasma membrane and cytosolic PKC (pmCKAR, CytoCKAR), and plasma membrane and cytosolic cAMP (pmEpac, CytoEpac). […] I-343 (10 μM) but not SCH530348 (100 nM) inhibited trypsin activation of cytosolic and nuclear ERK (FIG. 5G). PS2 and DynK44E inhibited trypsin-stimulated activation of cytosolic and nuclear ERK when compared to PS2 inact and DynWT controls (FIG. 5H, 5I, 17G-J). AG1478 (1 μM), an inhibitor of EGF receptor tyrosine kinase (Levitzki, A. & Gazit, A. Science 1995, 267(5205): 1782-1788), UBO-QIC (100 nM), which inhibits Gαq and certain Gβγ signals ([…]), and G66983 (1 μM), which inhibits all isoforms of PKC (Gschwendt, M, et al., FEBS Lett 1996, 392(2): 77-80), suppressed trypsin-stimulated activation of cytosolic ERK (FIGS. 5J and 17K).\nHEK293 cells were cultured in DMEM supplemented with 10% (v/v) FBS (5% CO2, 37° C.). When necessary serum restriction was achieved by replacing culture medium with DMEM containing 0.5% FBS overnight. Cells were transiently transfected using polyethylenimine (PEI) (1:6 DNA:PEI).\nHEK293 cells were transiently transfected in 10 cm dishes (˜50% confluency) with Flag-PAR2-HA (2.5 μg) and FRET biosensors CytoEKAR or NucEKAR (2.5 μg) (Jensen, D. D. et al., Sci Transl Med. 2017, 9(392), eaal3447; Thomsen, A. R. B., et al., Cell 2016, 166(4): 907-919). In experiments examining the role of dynamin, cells were transfected with FLAG-PAR2-HA (1.25 μg), FRET biosensor (1.25 μg) and either DynWT-HA, DynK44E-HA or pcDNA3.1 (2.5 μg). At 24 h after transfection, cells were seeded on ViewPlate-96 well plates (PerkinElmer). FRET was assessed 72 h post-transfection, following overnight serum restriction. Cells were equilibrated in HBSS-HEPES (30 min, 37° C.). FRET was measured using a PHERAstar FSX Microplate Reader (BMG LabTech). For CFP/YFP emission ratio analysis, cells were sequentially excited using a CFP filter (425/10 nm) with emission measured using YFP (550/50 nm) and CFP (490/20 nm) filters. FRET was measured before and after stimulation with trypsin (10 nM), NE (100 nM), CS (100 nM), phorbol 12,13-dibutyrate, PDBu (positive control, 1 μM), or vehicle. FRET ratios (donor/acceptor intensity for EKAR, or acceptor/donor intensity for CKAR and Epac) were calculated and corrected to baseline and vehicle treatments to determine ligand-induced FRET (ΔFRET). Treatment effects were determined by comparison of area under the curve values. Signalling inhibitors were dissolved in HBSS-HEPES. PS2 and PS2 inact were dissolved in HBSS-HEPES+1% DMSO. Cells were incubated with UBO-QIC (100 nM), AG1478 (1 μM), G66983 (1 μM), PS2 or PS2 inact (30 μM) or vehicle (30 min preincubation, inclusion throughout)."}, "colonic afferent neurons": {"test_system": "colonic afferent neurons", "experiment": "Colonic afferent recordings, healthy mice", "set-up": "species or system mouse", "details": "for basal mechanical sensitivity of colonic afferents / trypsin-induced sensitization of mechanical responses: I-343 10 μM, PS2 or PS2 inact 50 μM; for amplification of frequency of firing to mechanical stimulation: healthy mice, 2 g filament, trypsin 10 nM, NE 100 nM, CS 100 nM, 10 min", "excerpt": "To examine whether proteases cleave PAR2 on the peripheral terminals of colonic nociceptors to induce mechanical hypersensitivity, single unit recordings from afferent neurons innervating the mouse colon were made. Receptive fields were identified by mechanical stimulation of the mucosal surface with von Frey filaments, proteases were applied to the mucosal receptive fields, and mechanical responses were re-evaluated to assess sensitization. Under basal conditions, repeated mechanical stimulation (2 g filament) induced reproducible firing (FIG. 9A). […] The results support the hypothesis that PAR2 endocytosis is required trypsin-induced sensitization of colonic afferent neurons. The colon and rectum (5-6 cm) was removed from C57BL/6 mice. Afferent recordings were made from splanchnic nerves as described (Hughes, P. A. et al., Gut 2009, 58(10): 1333-134; Brierley, S. M. et al., Gastroenterology 2004, 127(1): 166-178). Briefly, the intestine was opened and pinned flat, mucosal side up, in an organ bath. […] The splanchnic nerve was extended into a paraffin-filled recording compartment, in which finely dissected strands were laid onto a platinum electrode for single-unit extracellular recordings of action potentials generated by mechanical stimulation of receptive fields in the colon. Receptive fields were identified by mechanical stimulation of the mucosal surface with a brush of sufficient stiffness to activate all types of mechanosensitive afferents. […] These neurons express an array of channels and receptors involved in pain, become mechanically hypersensitive in models of chronic visceral pain, and have a nociceptor phenotype. They are therefore referred to as “colonic nociceptors”. […] Proteases were applied to a metal cylinder placed over the receptive mucosal field of interest. […] Action potentials were analyzed using the Spike 2 […] function and discriminated as single units on the basis of distinguishable waveform, amplitude and duration."}, "PAR2-RLuc8": {"target": "T1, PAR2-RLuc8 (Homo sapiens, UniProt P55085)", "T1 construct": "expressed in transfected cells; host or cells: HEK293, transient transfection with PEI", "T1 sequence (P55085 26-397)": "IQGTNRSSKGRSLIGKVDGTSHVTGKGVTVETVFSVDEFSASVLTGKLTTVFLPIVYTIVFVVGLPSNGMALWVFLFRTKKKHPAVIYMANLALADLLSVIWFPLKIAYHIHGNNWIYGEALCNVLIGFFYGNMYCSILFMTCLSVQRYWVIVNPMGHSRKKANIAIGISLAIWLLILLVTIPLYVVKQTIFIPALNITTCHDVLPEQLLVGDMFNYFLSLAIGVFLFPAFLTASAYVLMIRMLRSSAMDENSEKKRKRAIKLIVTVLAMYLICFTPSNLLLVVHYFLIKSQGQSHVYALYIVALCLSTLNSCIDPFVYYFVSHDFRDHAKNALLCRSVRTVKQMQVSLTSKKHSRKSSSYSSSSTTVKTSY", "experiment": "BRET assays of PAR2 endocytosis in HEK293 cells", "format": "cell-based", "details": "for EC50: HEK293 cells"}},
  "note": "Where two headings read alike, the source gives them in different places.",
  "data": [
    {"compound": "O=C(N/N=C/c1cc(O)c(O)cc1O)c1cc2ccccc2cc1O", "note": "[Dy4]", "values": [
      {"measurement": "basal excitability of DRG neurons", "setting": "mouse DRG neurons", "result": "did not affect"},
      {"measurement": "initial hyperexcitability (0 min) caused by trypsin, NE or CS", "setting": "mouse DRG neurons", "result": "did not affect"},
      {"measurement": "persistent effects (30 min) of NE or CS on rheobase", "setting": "mouse DRG neurons", "result": "not"},
      {"measurement": "persistent effects (30 min) of trypsin on rheobase", "setting": "mouse DRG neurons", "result": "abolished"}
    ]},
    {"compound": "Cc1nc(C(=O)N2CCN(C(=O)c3cn4nc(-c5ccc(F)cc5)cc(C(C)(C)C)c4n3)C(C)(C)C2)n[nH]1", "note": "[Compound I-343, (8-(tert-butyl)-6-(4-fluorophenyl)imidazo[1,2-b]pyridazin-2-yl)(2,2-dimethyl-4-(5-methyl-1H-1,2,4-triazole-3-carbonyl)piperazin-1-yl)methanone]", "values": [
      {"measurement": "trypsin activation of cytosolic and nuclear ERK", "setting": "[1]", "result": "inhibited"},
      {"measurement": "basal mechanical sensitivity of colonic afferents", "setting": "colonic afferent neurons", "result": "did not affect"},
      {"measurement": "trypsin-induced sensitization of mechanical responses", "setting": "colonic afferent neurons", "result": "abolished"},
      {"measurement": "decrease in rheobase 0 min after NE", "setting": "mouse DRG neurons", "result": "prevented"},
      {"measurement": "decrease in rheobase 0 min after trypsin", "setting": "mouse DRG neurons; 100 nM, 300 nM", "result": "prevented"},
      {"measurement": "decrease in rheobase 30 min after CS", "setting": "mouse DRG neurons; 10 μM", "result": "prevented"},
      {"measurement": "decrease in rheobase 30 min after NE", "setting": "mouse DRG neurons; 10 μM", "result": "not"},
      {"measurement": "decrease in rheobase 30 min after trypsin", "setting": "mouse DRG neurons; 10 μM", "result": "prevented"}
    ]},
    {"compound": "O=C1NC(=NS(=O)(=O)c2cccc3ccccc23)S/C1=C\\c1ccc(Br)cc1", "note": "[PS2]", "values": [
      {"measurement": "trypsin activation of cytosolic and nuclear ERK", "setting": "[1]", "result": "inhibited"},
      {"measurement": "basal mechanical sensitivity of colonic afferents", "setting": "colonic afferent neurons", "result": "did not affect"},
      {"measurement": "trypsin-induced sensitization of mechanical responses", "setting": "colonic afferent neurons", "result": "abolished"},
      {"measurement": "trypsin-induced decrease in PAR2-RLuc8/RIT-Venus BRET and increase in PAR2-RLuc8/Rab5a-Venus BRET", "setting": "PAR2-RLuc8; PS2 or PS2 inact", "result": "suppressed"},
      {"measurement": "basal excitability of DRG neurons", "setting": "mouse DRG neurons", "result": "did not affect"},
      {"measurement": "initial hyperexcitability (0 min) caused by trypsin, NE or CS", "setting": "mouse DRG neurons", "result": "did not affect"},
      {"measurement": "persistent effects (30 min) of NE or CS on rheobase", "setting": "mouse DRG neurons", "result": "not"},
      {"measurement": "persistent effects (30 min) of trypsin on rheobase", "setting": "mouse DRG neurons", "result": "abolished"}
    ]},
    {"compound": "trypsin", "values": [
      {"measurement": "EC50", "setting": "[1]; HEK293 cells, read-out: EC50, activation of ERK in the cytosol and nucleus", "result": 5, "unit": "nM"},
      {"measurement": "activation of ERK in the cytosol and nucleus", "setting": "[1]; trypsin 10 nM, NE or CS 100 nM", "result": "stimulated a rapid and persistent activation"},
      {"measurement": "amplification of frequency of firing to mechanical stimulation", "setting": "colonic afferent neurons", "result": "35.8±5.9", "unit": "%"},
      {"measurement": "EC50", "setting": "PAR2-RLuc8; read-out: EC50, decrease in PAR2-RLuc8/RIT-Venus BRET", "result": 2.9, "unit": "nM"},
      {"measurement": "EC50", "setting": "PAR2-RLuc8; read-out: EC50, increase in PAR2-RLuc8/Rab5a-Venus BRET", "result": 2.7, "unit": "nM"},
      {"measurement": "PAR2-RLuc8/Rab5a-Venus BRET after 60 min", "setting": "PAR2-RLuc8; compared to HC supernatant, trypsin 10 nM positive control", "result": "increased"},
      {"measurement": "rheobase after protease", "setting": "mouse DRG neurons", "result": "decreased rheobase at 0 and 30 min"}
    ]},
    {"compound": "NE: protease (elastase) activating PAR2 by biased mechanisms", "values": [
      {"measurement": "amplification of frequency of firing to mechanical stimulation", "setting": "colonic afferent neurons", "result": "41.0±11.8", "unit": "%"},
      {"measurement": "PAR2-RLuc8/RIT-Venus or Rab5a-Venus BRET", "setting": "PAR2-RLuc8; 100 nM", "result": "Neither NE nor CS (100 nM) affected"},
      {"measurement": "rheobase after protease", "setting": "mouse DRG neurons", "result": "decreased rheobase at 0 and 30 min"}
    ]}
  ]
}
